This note sets out measurements from ChEMBL document CHEMBL1128577, “Synthesis and biological evaluation of novel 2,6-diaminobenz[cd]indole inhibitors of thymidylate synthase using the protein structure as a guide” (J Med Chem, 1995).

Structures are written as SMILES.

The nature of assay [1]: Compound is evaluated for thymidine shift. […]. The format is functional.
Assay [2] deals with L1210. Kind of assay: Compound is screened for cell growth inhibition against L1210 murine leukemia tumor cell line. The format is functional, cell-based. The following applies: Mus musculus.
Assay [3] concerns the target Thymidylate synthase (Homo sapiens, UniProt P04818). Put plainly: Inhibitory effect against recombinant human thymidylate synthase.
In assay [4] the test system is CCRF-CEM. Kind of assay: Compound is screened for cell growth inhibition against CCRF-CEM cell line, a human lymphoblastic leukemia line of T-cell origin. The format is functional, cell-based.
Assay [5] deals with Thymidylate synthase (Escherichia coli, UniProt C3SWJ7). Put plainly: Inhibitory effect against Escherichia coli thymidylate synthase.
Assay [6] concerns GC3/MTK-. Kind of assay: Compound is screened for cell growth inhibition against GC3/MTK-cell line, a human thymidine kinase deficient adenocarcinoma line. The format is functional, cell-based.

Thymidylate synthase (Escherichia coli, UniProt C3SWJ7), sequence (C3SWJ7 whole entry): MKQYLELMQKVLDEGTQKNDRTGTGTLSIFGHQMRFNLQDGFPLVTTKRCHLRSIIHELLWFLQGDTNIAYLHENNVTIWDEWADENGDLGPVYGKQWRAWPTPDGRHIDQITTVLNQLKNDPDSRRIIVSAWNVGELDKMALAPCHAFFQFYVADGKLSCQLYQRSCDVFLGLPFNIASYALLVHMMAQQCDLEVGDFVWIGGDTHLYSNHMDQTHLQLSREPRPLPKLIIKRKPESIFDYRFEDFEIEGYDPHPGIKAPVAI
Thymidylate synthase (Homo sapiens, UniProt P04818), sequence (P04818 whole entry): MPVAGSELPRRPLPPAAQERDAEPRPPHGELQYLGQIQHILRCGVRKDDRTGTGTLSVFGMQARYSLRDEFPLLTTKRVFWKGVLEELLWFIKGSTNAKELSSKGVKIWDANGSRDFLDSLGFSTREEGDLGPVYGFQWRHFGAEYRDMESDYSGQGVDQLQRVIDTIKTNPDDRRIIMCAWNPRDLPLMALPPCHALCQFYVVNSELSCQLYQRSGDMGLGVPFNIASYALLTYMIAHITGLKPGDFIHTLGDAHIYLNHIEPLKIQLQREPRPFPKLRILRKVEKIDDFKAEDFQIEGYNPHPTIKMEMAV

Consider `CN(Cc1ccc(S(=O)(=O)N2CCOCC2)cc1)c1ccc2c3c(cccc13)C(=N)N2`, for which the Thymidine shift in assay [1] was found to be 6.7.
Take `Cc1cc(CN(C)c2ccc3c4c(cccc24)C(N)=N3)ccn1`: the values for the IC50 in assay [2], in assay [4] and in assay [6] were 1.6 µM, 2.3 µM and 7.9 µM, respectively. The results for the Ki in assay [3] and in assay [5] were 0.014 µM and 1.8 µM, respectively. Also, the Thymidine shift in assay [1] came to 2.1.
As to `CN(Cc1ccnc(C(F)(F)F)c1)c1ccc2c3c(cccc13)C(N)=N2`, the IC50 (usually the concentration that inhibits the measured activity by half) in assay [2] is 2.1 µM; in assay [4] it was 5.9 µM; in assay [6], 12 µM. Moreover, the inhibition constant (Ki) (usually a measure of affinity in units of concentration, obtained from inhibition or displacement) in assay [3] was 0.045 µM. In addition, in assay [1], the Thymidine shift was 4.2.
The corresponding values for `CN(Cc1ccnc(Sc2ccccc2)c1)c1ccc2c3c(cccc13)C(N)=N2` are 0.66 µM, 2 µM, 11.5 µM, 0.052 µM and 1.8.
For `CN(Cc1ccnc(CO)c1)c1ccc2c3c(cccc13)C(N)=N2`, in that order: 1.3 µM, 3 µM, 11 µM, 0.018 µM and 6.9.
Regarding `Cc1ccc2c3c(ccc(N(C)Cc4ccnnc4)c13)N=C2N`, the IC50 in assay [2] amounted to 0.45 µM; in assay [4], 0.78 µM; in assay [6] it was 2.1 µM. Moreover, in assay [3], the Ki stood at 0.01 µM. Also, the Thymidine shift in assay [1] came to 12.1.
Regarding `CNC1=Nc2ccc(N(C)Cc3ccnnc3)c3cccc1c23`, the concentration for half-maximal inhibition (IC50) worked out at 6.9 µM in assay [2], 9 µM in assay [4] and 26 µM in assay [6]. In assay [3], the inhibition constant (Ki) turned out to be 0.31 µM. For the same compound, the Thymidine shift in assay [1] was 1.9.
`CN(Cc1ccncc1)c1ccc2c3c(cccc13)C(N)=N2`: the half-maximal inhibitory concentration (IC50) in assay [2] was determined as 0.095 µM; in assay [4], 2.4 µM; in assay [6] it was 4.8 µM. For the same compound, the inhibitory constant (Ki) in assay [3] came to 0.017 µM; in assay [5], 6.6 µM. Besides, the Thymidine shift in assay [1] came to 4.9.
Turning to `CNC1=Nc2ccc(N(C)Cc3ccnnc3)c3c(C)ccc1c23`, the 50% inhibitory concentration (IC50) in assay [2] was 0.8 µM; in assay [4], 3.7 µM; in assay [6] it was 9.9 µM. Moreover, the inhibitory constant (Ki) in assay [3] was determined as 0.03 µM. Also, the Thymidine shift in assay [1] worked out at 2.6.
Turning to `Cc1ccc2c3c(ccc(N(C)Cc4ccncc4)c13)N=C2N`, the IC50 in assay [2] was determined as 0.16 µM; in assay [4] it was 0.44 µM; in assay [6], 1.1 µM. Moreover, the figures for the Ki in assay [3] and in assay [5] were 0.006 µM and 0.6 µM, respectively. Moreover, in assay [1], the Thymidine shift amounted to 2.3.
For the compound `CCc1cc(CN(C)c2ccc3c4c(cccc24)C(N)=N3)ccn1`, the figures for the IC50 in assay [2], in assay [4] and in assay [6] were 1 µM, 3 µM and 6.5 µM, respectively. The Ki in assay [3] was 0.025 µM. In addition, the Thymidine shift in assay [1] turned out to be 2.8.
Take `CNC1=Nc2ccc(N(C)Cc3ccncc3)c3c(C)ccc1c23`: the IC50 was 0.21 µM in assay [2], 1.1 µM in assay [4] and 3.6 µM in assay [6]. Besides, the inhibitory constant (Ki) in assay [3] came to 0.014 µM. The Thymidine shift in assay [1] turned out to be 4.1.
For `CN(Cc1ccc(S(=O)(=O)N2CCOCC2)cc1)c1ccc2c3c(cccc13)C(N)=N2` [METESIND], the results for the Ki in assay [3] and in assay [5] were 0.015 µM and 5.4 µM, respectively.
On to `CN(Cc1ccnnc1)c1ccc2c3c(cccc13)C(N)=N2`, for which the figures for the half-maximal inhibitory concentration (IC50) in assay [2], in assay [4] and in assay [6] were 0.9 µM, 4 µM and 5 µM, respectively. Besides, the Ki in assay [3] was found to be 0.015 µM; in assay [5] it was 18 µM. In addition, the Thymidine shift in assay [1] is 7.7.
On to `Cc1cc(CN(C)c2ccc3c4c(ccc(C)c24)C(N)=N3)ccn1`, for which the IC50 in assay [2] is 0.17 µM; in assay [4], 0.45 µM; in assay [6], 0.6 µM. Moreover, the inhibitory constant (Ki) in assay [3] turned out to be 0.004 µM. Also, in assay [1], the Thymidine shift was 4.1.
The corresponding values for `CNC1=Nc2ccc(N(C)Cc3ccncc3)c3cccc1c23` are 1.9 µM, 5.1 µM, 23 µM, 0.27 µM and 2.6.
